Measurements taken from PubChem BioAssay AID1671291.

Target: Tyrosine-protein kinase HCK (Homo sapiens) (UniProt P08631)
Experiment: HCK kinase inhibition, dose response, biochemical, Z'-LYTE, FRET readout, direct format (AID 1671291)
Conditions: Z'-LYTE FRET peptide phosphorylation, recombinant HCK

Chain of Tyrosine-protein kinase HCK (Homo sapiens) (P08631 whole entry, looked up): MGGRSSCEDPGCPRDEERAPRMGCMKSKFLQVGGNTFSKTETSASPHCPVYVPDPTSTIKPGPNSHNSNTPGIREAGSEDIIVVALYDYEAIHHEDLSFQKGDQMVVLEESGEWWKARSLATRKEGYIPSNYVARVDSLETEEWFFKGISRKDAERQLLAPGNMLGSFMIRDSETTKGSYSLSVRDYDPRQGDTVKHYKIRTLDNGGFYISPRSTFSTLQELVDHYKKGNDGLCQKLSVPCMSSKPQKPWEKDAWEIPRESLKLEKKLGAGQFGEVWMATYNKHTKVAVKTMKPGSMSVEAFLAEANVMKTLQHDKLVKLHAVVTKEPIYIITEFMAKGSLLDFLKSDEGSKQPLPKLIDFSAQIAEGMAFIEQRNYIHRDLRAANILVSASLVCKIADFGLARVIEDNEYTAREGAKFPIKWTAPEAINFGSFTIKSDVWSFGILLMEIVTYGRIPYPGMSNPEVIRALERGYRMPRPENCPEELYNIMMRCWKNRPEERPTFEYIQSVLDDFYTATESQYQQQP

IC50: 943 nM
SMILES: COc1cc2ncnc(Nc3cccc(Cl)c3)c2cc1OC
